# Measurements from patent US7820678B2, “Sodium channel blockers” (Parion Sciences, Inc., priority 2003, dated 2010).
structure (smiles),measurement,value
"CS(=O)(=O)N(c1ccc(CCCCNC(=N)NC(=O)c2nc(Cl)c(N)nc2N)cc1)S(C)(=O)=O [Example 4, N-(3,5-Diamino-6-chloropyrazine-2-carbonyl)-N′-[4-(4-bis(methanesulfonyl)aminophenyl)butyl]guanidine]",melting point,174 to 176 °C (dec.)
